Data published in patent US20020065326A1, “Patient oxygenation using stabilized fluorocarbon emulsions” (priority 1992, published 2002).
Where two headings read alike, the source gives them in different places. Marks after values point to notes of the source that are not given here.

Key:
in vivo = assay: in vivo
From the text: Traditionally, the molecular weight region from 460-550 g/mol has been considered optimal for blood substitute applications. The lower cutoff is related to the formation of gas emboli for fluorocarbons with vapor pressures greater than 20 torr. The upper cutoff is limited to compounds with organ retention times of less than 3 weeks.
The lower limit is defined by fluorocarbons with vapor pressures greater than 20 torr which causes gas emboli, while the upper limit is defined by fluorocarbons with organ retention times of less than 3 weeks.

[1] = Critical solution temperature (CST) versus hexane; assay type: physicochemical
Protocol: Critical solution temperature for fluorocarbon liquids was measured in the following manner: Equivolume mixtures of the test fluorocarbon and hydrocarbon (e.g., hexane) are placed in a sealed vial and submerged in a temperature controlled water bath. Samples are cooled until two distinct phases are present. At this point, the temperature is increased slowly. The lowest temperature at which the two phases are completely miscible (i.e., a single liquid phase) is defined as the CST.
For comparison purposes, all CST temperatures used in this patent are reported versus hexane. It is often not possible, however, to measure the CST for lipophilic fluorocarbons versus hexane, since the CSTs for these substances are very low. Thus, the CST for lipophilic substances is often measured in longer chain length hydrocarbons, and the value versus hexane is determined via extrapolation of linear plots of CST vs. alkane chain length.

[2] = cited from earlier work; for t½: organ retention half life, prior art / nonlipophilic fluorocarbons from literature
[3] = critical solution temperature vs hexane; prior art minor components discussed in literature; cited from earlier work
[4] = vs hexane, estimated from extrapolations of linear plots of CST vs. hydrocarbon chain length

Molecule	t½ [2] [days]	CSTH [3] [C]	further results
FC1(F)C(F)(F)C(F)(F)C2(F)C(F)(F)C(F)(F)C(F)(F)C(F)(F)C2(F)C1(F)F (stereo not drawn) [F-decalin, perfluorodecalin]			half-life (in vivo; t½): 7 days; CSTH ([1]; critical solution temperature vs hexane, Present Study): 22 C
FC(F)(F)C(F)(F)C(F)(F)C(F)(F)C(F)(F)C(F)(F)C(F)(F)C(F)(F)C(F)(F)C(F)(F)Br [F-decyl bromide, perfluorodecyl bromide]			organ half-life versus prescribed cutoff (in vivo): less than 3 week; organ retention time compared with that predicted from the molecular weight (in vivo): less than be predicted from the molecular weight; t½ (calculated half life in vivo in organs of the RES) (in vivo): (18) days; half-life (in vivo; t½ (calculated half life in vivo in organs of the RES)): ~18 days; critical solution temperature compared with prior art stabilizers (in words) ([1]; vs hexane, at comparable molecular weight): dramatically lower; CSTH [1, 4]: (19)^a C
FC1(F)OC(F)(F)C(F)(F)N(C(F)(F)C(F)(F)N2C(F)(F)C(F)(F)OC(F)(F)C2(F)F)C1(F)F [F-dimorpholinoethane]	24	38	
FC1(F)OC(F)(F)C(F)(F)N(C(F)(F)C(F)(F)C(F)(F)C(F)(F)C(F)(F)N2C(F)(F)C(F)(F)OC(F)(F)C2(F)F)C1(F)F [F-dimorpholinopentane]	280	60	
FC1(F)OC(F)(F)C(F)(F)N(C(F)(F)C(F)(F)C(F)(F)N2C(F)(F)C(F)(F)OC(F)(F)C2(F)F)C1(F)F [F-dimorpholinopropane]	50	45	
FC(F)(F)C(F)(F)C(F)(F)C(F)(F)C(F)(F)C(F)(F)Br [F-hexyl bromide, 1-bromotridecafluorohexane]			half-life (in vivo; in vivo): 2 days
FC(F)(F)C(F)(F)C(F)(F)C(F)(F)C(F)(F)C(F)(F)C(F)(F)C(F)(F)Br [F-octyl bromide, perfluorooctyl bromide]			ratio of half-lives for PFOB/FDC ([2]; used to scale FIG. 6 values): 4/7; organ retention time compared with that predicted from the molecular weight (in vivo): less than be predicted from the molecular weight; half-life (in vivo; t½): 4 days; CSTH [1, 4]: (−19)^a C
FC1(F)C(F)(F)C(F)(F)C2(F)C(F)(C1(F)F)C(F)(F)C(F)(F)C1(F)C(F)(F)C(F)(F)C(F)(F)C(F)(F)C12F (stereo not drawn) [F-perhydrophenanthrene]		48	
FC1(F)OC(F)(F)C(F)(F)N(C2(F)C(F)(F)C(F)(F)C(F)(F)C(F)(F)C2(F)F)C1(F)F [F—N-cyclohexylmorpholine]	13	31	
F-dip;peridinopropane	282	56	
F-dipipendine		36	
F-dipiperidinobutane	1460	72	
F-dipiperidinoethane	124	49	
F-dipiperidinomethane	55	42	
F—N-methylcyclohexylpiperidine	60	40	
